# Assay results taken from PMC7449217, “The FDA-Approved Drug Nelfinavir Inhibits Lytic Cell-Free but Not Cell-Associated Nonlytic Transmission of Human Adenovirus” (Antimicrobial Agents and Chemotherapy, 2020).
# Counter-ions that a name gives are not always drawn.
# What was measured:
# HAdV-C2-dE3B-GFP [1] = experiment: quantification of infectious progeny in the supernatant, titration on A549 cells; type: cell-based, human adenovirus; details: 1.25 μM, 7 dpi, HAdV-C2-dE3B-GFP-infected A549 cells
# Experimental: A549 cells were seeded at 480,000 cells per 6-well plate in full DMEM and infected at 1,100 PFU HAdV-C2-dE3B-GFP per well the next day. Following 1 h of warm incubation, the supernatant was removed, and cells were washed with PBS and detached by trypsin digestion. Infected cells were centrifuged and resuspended in fresh medium to remove any unbound input virus and seeded at 180,000 cells/12-well plate in medium supplemented with 1.25, 3, or 10 μM nelfinavir or equivalent amounts of the DMSO solvent control. At the indicated times postinfection, the supernatant was harvested and cleared by centrifugation. Two hundred microliters of PBS/well was added to the infected monolayer. Cells were disrupted by three freeze-thaw cycles, and freon extraction was performed. The supernatant and cell lysate were stored at 4°C until titration on naive A549 cells. PFA-fixed, Hoechst-stained cells were imaged at 44 hpi using a 4× objective (NA, 0.20) on an IXM-XL epifluorescence microscope (Molecular Devices, San Jose, CA, USA). GFP-positive infected cells were classified based on the median nuclear GFP intensity using automated image analysis by CellProfiler ([178]).
# Four hundred eighty thousand A549 cells were seeded per 6-well dish, inoculated with 1,100 PFU HAdV-C2-dE3B-GFP/well for 1 h at 37°C, washed with PBS, and detached by trypsin digestion. […]
# HAdV-C2-dE3B-GFP [2] = experiment: quantification of viral protein expression (CMV-GFP, hexon) in infected A549 cells; type: cell-based, human adenovirus; details: 46 hpi, at the tested concentrations
# Experimental: Infection, HAdV hexon immunofluorescence staining, and imaging were performed in technical quadruplicates, as described above for the microscopic plaque assay. Single nuclei (Hoechst) were segmented using CellProfiler ([178]). Median GFP and hexon signals per nucleus were measured, and infected nuclei were classified using the median GFP or hexon signal per nucleus. Subsequently, the mean and standard deviation (SD) over all infected nuclei per well were calculated using R version 3.3.2 ([179]). Data were plotted using GraphPad (version 8.1.2; GraphPad Software, Inc.).
# MAdV-1-pIX-FS2A-GFP = experiment: fluorescence-based plaque-forming assay, CMT-93 cells; type: cell-based, mouse adenovirus 1
# Experimental: (§1) Per 96-well plate, 15,000 A549 cells, 10,000 HeLa cells, 30,000 HBECs, 30,000 HCE cells, or 30,000 CMT-93 cells were seeded in 100 μl of the respective supplemented medium and allowed to settle for 1 h at room temperature (RT) prior to cell culture incubation at 37°C with 5% CO2 and 95% humidity. The following day, the medium was replaced with 50 μl of the respective virus stock dilution giving rise to 5 to 50 plaques per 96-well plate. Fifty microliters of nelfinavir to obtain a 0.1 to 50 μM final concentration or the DMSO solvent control was also added, both in supplemented medium. For each experiment, a noninfected, treated control was performed. […] Plates were imaged on either an IXM-XL or an IXM-C automated high-throughput fluorescence microscope (Molecular Devices, San Jose, CA, USA) using a 4× objective in wide-field mode. Hoechst staining was recorded in the 4′,6-diamidino-2-phenylindole (DAPI) channel, the fluorescein isothiocyanate (FITC)/GFP channel was acquired for viral GFP, and the tetramethyl rhodamine isothiocyanate (TRITC)/Texas Red channel was acquired for hexon immunofluorescence staining.
# (§2) The infection phenotype for each well was quantified using Plaque2.0 ([101]). The number of plaques was determined based on the infection signal (viral GFP or hexon immunofluorescence staining). […] The mean TI50 was calculated as the EC50/TC50 ratio of the means. […]
# CMT-93 cells = experiment: TC50, number of nuclei in noninfected treated cells; type: cell-based, mouse; details: noninfected CMT-93, nuclei, 4 dpi
# Experimental: as §1, §2
# HAdV-C2-dE3B-GFP [3] = experiment: fluorescence-based plaque-forming assay, HeLa cells; type: cell-based, human adenovirus; details: for TI50 (TC50/IC50): HAdV-C2-dE3B-GFP in HeLa, 4 dpi, GFP
# Experimental: (§3) Per 96-well plate, 15,000 A549 cells, 10,000 HeLa cells, 30,000 HBECs, 30,000 HCE cells, or 30,000 CMT-93 cells were seeded in 100 μl of the respective supplemented medium and allowed to settle for 1 h at room temperature (RT) prior to cell culture incubation at 37°C with 5% CO2 and 95% humidity. The following day, the medium was replaced with 50 μl of the respective virus stock dilution giving rise to 5 to 50 plaques per 96-well plate. Fifty microliters of nelfinavir to obtain a 0.1 to 50 μM final concentration or the DMSO solvent control was also added, both in supplemented medium. For each experiment, a noninfected, treated control was performed. For uphill plaque assays, the medium volume was increased to 150 μl with identical virus and drug concentrations. For wash-in/washout experiments, the virus was incubated on cells in supplemented medium for 1 h at 37°C, cells were washed with PBS, and a 100-μl drug dilution in supplemented medium was added. All experiments were performed in four technical replicates or as indicated. Cells were incubated under standard cell culture conditions. At the indicated times postinfection, the cells were fixed, and the nuclei were stained for 1 h at RT by the addition of 33 μl 16% (wt/vol) paraformaldehyde (PFA) and 4 μg/ml Hoechst 33342 (Sigma-Aldrich, St. Louis, MO, USA) in PBS. Cells were washed three times with PBS and stored in PBS supplemented with 0.02% N3 for infections with viruses harboring a GFP transgene. For wild-type (wt) viruses, cells were quenched in PBS supplemented with 50 mM NH4Cl, permeabilized using 0.2% (vol/vol) Triton X-100 in PBS, and blocked with 0.5% (wt/vol) bovine serum albumin (BSA) in PBS. Cells were incubated with 381.7 ng/ml mouse anti-HAdV hexon protein antibody (Mab8052; Sigma-Aldrich, St. Louis, MO, USA) and subsequently stained using 2 μg/ml goat anti-mouse-Alexa Fluor 594 (catalog number A21203 or A32742; Thermo Fisher Scientific, Waltham, MA, USA). Plates were imaged on either an IXM-XL or an IXM-C automated high-throughput fluorescence microscope (Molecular Devices, San Jose, CA, USA) using a 4× objective in wide-field mode. Hoechst staining was recorded in the 4′,6-diamidino-2-phenylindole (DAPI) channel, the fluorescein isothiocyanate (FITC)/GFP channel was acquired for viral GFP, and the tetramethyl rhodamine isothiocyanate (TRITC)/Texas Red channel was acquired for hexon immunofluorescence staining.
# (§4) The infection phenotype for each well was quantified using Plaque2.0 ([101]). The number of plaques was determined based on the infection signal (viral GFP or hexon immunofluorescence staining). Nuclei stained with Hoechst were segmented by using CellProfiler ([178]). Infected nuclei were classified based on the median infection signal per nucleus in CellProfiler. Data were plotted, and the EC50 (infected and treated cells), the TC50 (noninfected, treated cells), as well as the corresponding standard errors (SE) were determined using curve fitting in GraphPad (version 8.1.2; GraphPad Software, Inc.) using three-parameter inhibitor concentration-versus-response nonlinear regression. The mean TI50 was calculated as the […] ratio of the means. The TI50 SE was calculated by error propagation.
# HAdV-C2-dE3B-GFP-dADP = experiment: as above; type: cell-based, human adenovirus; details: for TI50 (TC50/IC50): HAdV-C2-dE3B-GFP-dADP in HeLa, 5 dpi, GFP
# Experimental: as §3, §4
smiles,measurement,setting,value
"Cc1c(O)cccc1C(=O)N[C@@H](CSc1ccccc1)[C@H](O)CN1C[C@H]2CCCC[C@H]2C[C@H]1C(=O)NC(C)(C)C [Nelfinavir, Nelfinavir mesylate]",reduction of total yield of infectious particles in the supernatant,HAdV-C2-dE3B-GFP [1],3 orders of magnitude
same,effect on GFP or hexon expression,HAdV-C2-dE3B-GFP [2],no effect
same,TI50 (TC50/IC50),"MAdV-1-pIX-FS2A-GFP; MAdV-1-pIX-FS2A-GFP in CMT-93, 4 dpi, GFP",1.03
same,EC50,"MAdV-1-pIX-FS2A-GFP; Murine mastadenovirus A, CMT93",20.7 µM
same,TC50,CMT-93 cells; line MAdV-1-pIX-FS2A-GFP,21.29 µM
same,TC50,CMT-93 cells; line MAdV-3-pIX-FS2A-GFP,26.07 µM
same,TI50 (TC50/IC50),HAdV-C2-dE3B-GFP [3],61.03
same,TI50 (TC50/IC50),HAdV-C2-dE3B-GFP [3]; listed as nelfinavir,61.0
same,EC50,"HAdV-C2-dE3B-GFP [3]; Human adenovirus sp., HeLa",0.49 µM
same,TI50 (TC50/IC50),HAdV-C2-dE3B-GFP-dADP,8.91
same,TI50 (TC50/IC50),HAdV-C2-dE3B-GFP-dADP; listed as nelfinavir,8.9
same,EC50,"HAdV-C2-dE3B-GFP-dADP; Human adenovirus sp., HeLa",4.68 µM
